pEC50: −log10 of the molar value.
Experiments:
[1] = tested on: C. albicans mating receptor (Ca.Ste2) biosensor; assay: Paper-based dipstick assay, lycopene readout, C. albicans biosensor; type: cell-based, Candida albicans; details: 1 μM peptide
[2] = biological target: S. cerevisiae native Ste2 receptor (Saccharomyces cerevisiae, UniProt D6VTK4); assay: Fungal GPCR activation in S. cerevisiae sensor strain, fluorescent reporter; type: cell-based; details: non-cognate peptide
M. oryzea mating GPCR = type: cell-based, Magnaporthe oryzea
B. cinerea mating GPCR = type: cell-based, Botrytis cinerea; details: cognate synthetic peptide pheromone, fluorescent readout
[3] = tested on: P. brasiliensis mating receptor (Pb.Ste2) biosensor; type: cell-based, Paracoccidioides brasiliensis
[4] = tested on: F. graminearum mating GPCR; type: cell-based, Fusarium graminearum
endogenous GPCR Ste2 = endogenous GPCR Ste2 (Saccharomyces cerevisiae, UniProt D6VTK4); type: cell-based, S. cerevisiae; details: v1.0 lycopene reporter strain
endogenous GPCR Ste2, sequence (D6VTK4 whole entry): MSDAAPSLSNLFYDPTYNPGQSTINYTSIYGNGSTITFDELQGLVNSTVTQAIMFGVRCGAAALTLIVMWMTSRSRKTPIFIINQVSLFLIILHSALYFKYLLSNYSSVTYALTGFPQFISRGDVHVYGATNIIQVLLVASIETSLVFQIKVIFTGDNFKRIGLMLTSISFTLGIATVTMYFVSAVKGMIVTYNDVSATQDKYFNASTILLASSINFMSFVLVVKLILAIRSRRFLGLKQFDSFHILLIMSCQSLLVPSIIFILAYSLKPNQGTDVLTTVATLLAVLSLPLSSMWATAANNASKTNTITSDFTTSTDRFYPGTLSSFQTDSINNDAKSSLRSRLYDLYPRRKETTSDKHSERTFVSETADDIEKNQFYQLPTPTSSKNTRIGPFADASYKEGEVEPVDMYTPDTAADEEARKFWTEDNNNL

[5] = tested on: C. albicans mating GPCR (Ca.Ste2); type: cell-based, Candida albicans; details: non-cognate peptide
[6] = tested on: L. elongisporous mating GPCR; type: cell-based; details: cognate synthetic peptide pheromone, fluorescent readout

S. cerevisiae native Ste2 receptor, sequence (D6VTK4 whole entry): as above

With “GFRLTNFGYFEPG [GFRLTNFGYFEPG (SEQ ID NO: 5)]” the “time to maximal response in dipstick assay” value [1] was at most 12 h, the “response of S. cerevisiae native Ste2 receptor to non-cognate pheromone” value [2] was “not” and the “response of C. glabrata receptor to the other species pheromone” value (C. glabrata mating GPCR; non-cognate peptide) was “did not respond”.
Work on “QWCPRRGQPCW [QWCPRRGQPCW (SEQ ID NO: 17)]” yielded a pEC50 (M. oryzea mating GPCR) of 5.30.
For WCGRPGQPC [WCGRPGQPC (SEQ ID NO: 20)], the pEC50 (B. cinerea mating GPCR) was over 9.00.
For WCTRPGQGC [WCTRPGQGC (SEQ ID NO: 11)], the “time to maximal response in dipstick assay” value [3] was at most 12 h.
With WCWWKGQPCW [WCWWKGQPCW (SEQ ID NO: 14)] the pEC50 [4] was 6.64.
“WHWLQLKPGQPMY [WHWLQLKPGQPMY (SEQ ID NO: 24)]” was tested, and the “time until reporter strain became visibly orange after exposure” value (endogenous GPCR Ste2) was 36 h.
With “WHWVRLRKGQGLF [WHWVRLRKGQGLF (SEQ ID NO: 8)]” the “response of C. albicans receptor to the other species pheromone” value [5] was “did not respond”, the “response of S. cerevisiae native Ste2 receptor to non-cognate pheromone” value [2] was “responded” and the pEC50 (C. glabrata mating GPCR; cognate synthetic peptide pheromone, biosensor settings) was 5.44.
With “WMWTRYGRFSPV [WMWTRYGRFSPV (SEQ ID NO: 34)]” the pEC50 [6] was 7.29.
